The data set is described as follows: Pharmacokinetics in female BALB/c nude mice bearing A375 xenografts, 1 day dosing (PK and PD study): plasma, tumor and brain concentrations, AUC. It counts as in vivo. The conditions noted are these: 100 mg/kg p.o. QD × 1 day; for Mean Concentration in Brain ± SEM / Mean Concentration in Plasma ± SEM: BQL: below the lower limit of quantitation. The source says:
The concentrations of Dabrafenib, Compound 26 and Compound 141 in the treatment of female BALB/c nude mice bearing A375 xenografts are shown in Table 62-Table 72 and FIG. 52-FIG. 73.

[1] abbreviates: mouse, brain, po, 100 mg/kg, read-out: Mean Concentration in Brain ± SEM.
Setting [2] is: mouse, plasma, po, 100 mg/kg, read-out: Mean Concentration in Plasma ± SEM.
Where [3] appears, read: mouse, tumor, po, 100 mg/kg, read-out: Mean Concentration in Tumor ± SEM.

The results in this text go back to patent publication US20260297060A1, “COMPOUNDS FOR THE DEGRADATION OF MUTANT BRAF” (C4 THERAPEUTICS, INC., priority 2023, published 2026).

Read-outs that look alike come from different tables or passages of the source.

With `CC(C)(C)c1nc(-c2cccc(NS(=O)(=O)c3c(F)cccc3F)c2F)c(-c2ccnc(N)n2)s1` [Dabrafenib, dabrafenib, reference compound], the “Mean Concentration in Brain ± SEM” value is “BQL^a” (10 h) and “BQL” (24 h). Besides, the “Mean Concentration in Plasma ± SEM” value (36 h) is “BQL” and the “Mean Concentration in Plasma ± SEM” value (48 h) is recorded as “BQL”. Besides, the concentration at 1 h runs as follows: under setting [1], 1040 ± 349 ng/g; under setting [2], 7.49 ± 1.36 µg/mL; under setting [3], 8660 ± 4660 ng/g. The concentration at 4 h worked out at 6.13 ng/g under setting [1], 0.11 ± 0.0376 µg/mL under setting [2] and 442 ± 257 ng/g under setting [3]. The concentration at 48 h runs as follows: (mouse, brain, po, 100 mg/kg, 48 h, read-out: Mean Concentration in Brain ± SEM) 15.2 ng/g; (mouse, tumor, po, 100 mg/kg, 48 h, read-out: Mean Concentration in Tumor ± SEM) 4.66 ng/g. Besides, the exposure (AUC) at 24 h came out at 1.58 µg·h/mL (mouse, brain, po, read-out: Brain AUC at 24 hours, Average); 32.1 µg·h/mL (mouse, plasma, po, read-out: Plasma AUC at 24 hours, Average); 1.68 µg·h/mL (mouse, tumor, po, read-out: Tumor AUC at 24 hours, Average). Further, under “mouse, plasma, po, 100 mg/kg, 0.25 h, read-out: Mean Concentration in Plasma ± SEM”, the concentration at 0.25 h was 62.2 ± 10.9 µg/mL. Further, the concentration at 0.5 h (mouse, plasma, po, 100 mg/kg, 0.5 h, read-out: Mean Concentration in Plasma ± SEM) worked out at 44.7 ± 11.6 µg/mL. Moreover, the concentration at 2 h (mouse, plasma, po, 100 mg/kg, 2 h, read-out: Mean Concentration in Plasma ± SEM) amounted to 0.844 ± 0.198 µg/mL. Moreover, the concentration at 8 h (mouse, plasma, po, 100 mg/kg, 8 h, read-out: Mean Concentration in Plasma ± SEM) is 0.0556 ± 0.0155 µg/mL. Also, the concentration at 10 h reads like this: (mouse, plasma, po, 100 mg/kg, 10 h, read-out: Mean Concentration in Plasma ± SEM) 0.0259 ± 0.00209 µg/mL; (mouse, tumor, po, 100 mg/kg, 10 h, read-out: Mean Concentration in Tumor ± SEM) 18 ± 1.88 ng/g. Further, the concentration at 24 h (mouse, plasma, po, 100 mg/kg, 24 h, read-out: Mean Concentration in Plasma ± SEM) was 0.000616 µg/mL and the concentration at 24 h (mouse, tumor, po, 100 mg/kg, 24 h, read-out: Mean Concentration in Tumor ± SEM) was found to be 253 ng/g.

For orientation: AUC means the area under the concentration-time curve, a measure of exposure.
